Source: patent publication US20070110779A1, “Activated peroxide solutions and a process for the preparation thereof” (ASEPTIX TECHNOLOGIES B.V., priority 2005, published 2007)
Like-named read-outs stand apart in the source and are kept apart here.

Assays:
Escherichia coli = assay: bactericidal suspension test conform EN 1040 (Example 1); format: cell-based; conditions: after 5 minutes
Procedure: (§1) In a controlled bactericidal suspension test conform European Norm for testing of basic bactericidal activity of chemical disinfectants and antiseptics EN 1040, a 1 ml McFarland standard 0.5 (10^8 microorganisms per ml) was mixed 1:8 with the activated peroxide solution and 1 ml milli-Q water. After 10 minutes, Staphylococcus aureus was killed 100%, while Escherichia coli, Salmonella typhimurium, Rhodotorula rubra and Pseudomonas aeruginosa were all killed 100% already after 5 minutes. A 100% kill typically is shown by at least a log 5 reduction.

Pseudomonas aeruginosa = assay: as above; format: cell-based; conditions: after 5 minutes
Procedure: as §1

Rhodotorula rubra = assay: as above; format: cell-based; conditions: after 5 minutes
Procedure: as §1

Salmonella typhimurium = assay: as above; format: cell-based; conditions: after 5 minutes
Procedure: as §1

Staphylococcus aureus = assay: as above; format: cell-based
Procedure: as §1

[1] = pH measurement of the solution; format: physicochemical
Procedure: (§2) The peroxide concentration is determined by a potassium permanganate titration procedure and the devices used for the measurement of pH, ORP and conductivity are a WTW 537, a Testo 230 ORP and a HANNA EC device, respectively.

[2] = oxidation-reduction potential (ORP) measurement of the solution; format: physicochemical
Procedure: as §2

[3] = electrical conductivity measurement of the solution; format: physicochemical
Procedure: as §2

[4] = test system: Corynebacterium minitissium; assay: test of corona treated solution against strains of bacteria (Example 3); format: cell-based; conditions: after 5 minutes
Procedure: (§3) The corona treated solution was then tested against several strains of bacteria and compared to untreated solutions of 1% hydrogen peroxide.

E. coli = assay: as above; format: cell-based; conditions: after 5 minutes
Procedure: as §3

Lysteria = assay: as above; format: cell-based; conditions: after 5 minutes
Procedure: as §3

SMILES	pH of the solution [1]	ORP of the solution [2] [mV]	conductivity [3]	other results
OO [1.6% common hydrogen peroxide solution, hydrogen peroxide]				killed (Escherichia coli): < 100%; killed (Pseudomonas aeruginosa): < 100%; killed (Rhodotorula rubra): < 100%; killed / reduction (Salmonella typhimurium): 70%; reduction (Staphylococcus aureus; after 5 minutes): none; reduction (Staphylococcus aureus; after 20 minutes): 50%
OO [3% H2O2, hydrogen peroxide]	approximately 3.9	411	60 μS/cm	
OO [Example 3 starting solution, hydrogen peroxide]	4.5	380	17.8 microSiemens/cm	
OO [10% H2O2, hydrogen peroxide]	approximately 3.3	446	110 μS/cm	
OO [0.1% H2O2, hydrogen peroxide]	approximately 4.9	355	20 μS/cm	
OO [standard 1% hydrogen peroxide, hydrogen peroxide]				reduced with log [4]: no countable reduction; reduced with log (E. coli): no countable reduction; reduced with log (Lysteria): no countable reduction; pH of the solution ([1]; listed as 1% H2O2): approximately 4.4; ORP of the solution ([2]; listed as 1% H2O2): 390 mV; conductivity ([3]; listed as 1% H2O2): 30 μS/cm
OO [5% H2O2, hydrogen peroxide]	approximately 3.7	428	90 μS/cm	
OO [Example 1 solution before activation, hydrogen peroxide]	5.8			
OO [0.5% H2O2, hydrogen peroxide]	approximately 4.6	374	approximately 21 μS/cm	
